# Test results taken from ChEMBL document CHEMBL4376803, “Recent Advances in the Exploration of Therapeutic Analogues of Gramicidin S, an Old but Still Potent Antimicrobial Peptide” (J Med Chem, 2019).
# Numbered stars: 1 amine (or outer) side, 2 acyl side, 3 side chain; on linkers, the order of the positions; unused ones are H or OH. Square brackets hold non-standard residues; d marks the D form. Peptide text beside a SMILES is read from it. X1 = Cc1nc([C@@H](Cc2ccccc2)N[*:1])c(C(=O)[*:2])s1; Orn = NCCC[C@H](N)C(=O)O
# How the values were obtained:
# [1] = Hemolytic activity in sheep erythrocytes; type: ADME, cell-based, Ovis aries, Erythrocyte
# Staphylococcus aureus [2] = assay: Antibacterial activity against Staphylococcus aureus NBRC 12732; type: functional
# Escherichia coli [3] = assay: Antibacterial activity against Escherichia coli NBRC 12734; type: functional
# Bacillus subtilis [4] = assay: Antibacterial activity against Bacillus subtilis NBRC 3513; type: functional
# Pseudomonas aeruginosa [5] = assay: Antibacterial activity against Pseudomonas aeruginosa NBRC 3080; type: functional
# Priestia megaterium = assay: Antibacterial activity against Bacillus megaterium ATCC 19213; type: functional
# Staphylococcus aureus [6] = assay: Antibacterial activity against Staphylococcus aureus ATCC 49975 after 16 to 20 hrs by broth microdilution method; type: functional
# Enterococcus faecalis [7] = assay: Antibacterial activity against Enterococcus faecalis ATCC 29212 after 24 hrs; type: functional; settings: ATCC 29212, 24 h
# [8] = tested on: Staphylococcus epidermidis; assay: Antibacterial activity against Staphylococcus epidermidis ATCC 12228 incubated for 24 hrs; type: functional; settings: ATCC 12228, 24 h
# Pseudomonas aeruginosa [9] = assay: Antibacterial activity against Pseudomonas aeruginosa ATCC 27853 incubated for 24 hrs; type: functional; settings: ATCC 27853, 24 h
# Bacillus cereus = assay: Antibacterial activity against Bacillus cereus ATCC 11778 incubated for 24 hrs; type: functional; settings: ATCC 11778, 24 h
# Staphylococcus aureus [10] = assay: Antibacterial activity against Staphylococcus aureus ATCC 29213 after 24 hrs; type: functional; settings: ATCC 29213, 24 h
# Escherichia coli [11] = assay: Antibacterial activity against Escherichia coli ATCC 25922 after 24 hrs; type: functional; settings: ATCC 25922, 24 h
# Staphylococcus aureus [12] = assay: Antibacterial activity against methicillin-resistant Staphylococcus aureus NT 1110301981H-T034-PVL+ incubated for 24 hrs; type: functional
# [13] = Haemolytic activity in human RBC incubated for 1 hr; type: ADME, cell-based, Erythrocyte; settings: human red blood cells
# [14] = tested on: Staphylococcus epidermidis; assay: Antibacterial activity against Staphylococcus epidermidis ATCC 27626 after overnight incubation by broth microdilution method; type: functional
# Staphylococcus aureus [15] = assay: Antibacterial activity against vancomycin-resistant Staphylococcus aureus Mu50/ATCC 700699 after overnight incubation by broth microdilution method; type: functional
# Staphylococcus aureus [16] = assay: Antibacterial activity against multidrug-resistant Staphylococcus aureus ATCC BAA-44 after overnight incubation by broth microdilution method; type: functional
# Klebsiella pneumoniae = assay: Antibacterial activity against Klebsiella pneumonia K6 ATCC 700603 after overnight incubation by broth microdilution method; type: functional; settings: 700603 K6
# Escherichia coli [17] = assay: Antibacterial activity against Escherichia coli K-12 ATCC 29181 after overnight incubation by broth microdilution method; type: functional
# Salmonella = assay: Antibacterial activity against Salmonella after overnight incubation by broth microdilution method; type: functional
# [18] = Haemolytic activity in human RBC after 4 hrs; type: ADME, cell-based, Erythrocyte; settings: human red blood cells
# [19] = Therapeutic index, ratio of HD100 for hemolytic activity in human erythrocytes to MIC against Staphylococcus aureus ATCC 29213; type: toxicity, cell-based; settings: read-out: TI
# [20] = Therapeutic index, ratio of HD100 for hemolytic activity in human erythrocytes to MIC against Escherichia coli ATCC 25922; type: toxicity, cell-based; settings: read-out: TI
# Staphylococcus aureus [21] = assay: Antibacterial activity against Staphylococcus aureus ATCC 29213; type: functional
# Erythrocyte = assay: (§1) Haemolytic activity in human erythrocytes; type: ADME, cell-based; settings: erythrocyte
# Enterococcus faecalis [22] = assay: Antibacterial activity against Enterococcus faecalis ATCC 29212; type: functional
# Pseudomonas aeruginosa [23] = assay: Antibacterial activity against Pseudomonas aeruginosa ATCC 27853; type: functional
# Escherichia coli [24] = assay: Antibacterial activity against Escherichia coli ATCC 25922; type: functional
# [25] = Therapeutic index, ratio of HD100 for hemolytic activity in human erythrocytes to MIC against Enterococcus faecalis ATCC 29212; type: toxicity, cell-based; settings: read-out: TI
# [26] = Therapeutic index, ratio of HD100 for hemolytic activity in human erythrocytes to MIC against Pseudomonas aeruginosa ATCC 27853; type: toxicity, cell-based; settings: read-out: TI
# [27] = as §1; type: ADME, cell-based, Erythrocyte; settings: human erythrocytes
# Staphylococcus xylosus = assay: Antibacterial activity against Staphylococcus xylosus; type: functional
# [28] = tested on: Staphylococcus epidermidis; assay: Antibacterial activity against Staphylococcus epidermidis; type: functional
# Staphylococcus aureus [29] = assay: Antibacterial activity against Staphylococcus aureus; type: functional
# Staphylococcus aureus [30] = assay: Antibacterial activity against Staphylococcus aureus ATCC 6538 incubated for 48 hrs; type: functional; settings: ATCC 6538, 48 h
# Escherichia coli [31] = assay: Antibacterial activity against Escherichia coli ATCC 8739 incubated for 48 hrs; type: functional; settings: ATCC 8739, 48 h
# Pseudomonas aeruginosa [32] = assay: Antibacterial activity against Pseudomonas aeruginosa ATCC 9027 incubated for 48 hrs; type: functional; settings: ATCC 9027, 48 h
# [33] = Haemolytic activity in human erythrocytes at 100 ug/ml after 30 mins relative to control; type: ADME, cell-based, Erythrocyte; settings: read-out: Activity
# Bacillus subtilis [34] = assay: Antibacterial activity against Bacillus subtilis CIP 52.65 incubated for 48 hrs; type: functional; settings: CIP 52.65, 48 h
smiles,measurement,setting,value
NCCC[C@@H]1NC(=O)[C@H](CCCN)NC(=O)[C@@H]2CCCN2C(=O)[C@@H](Cc2ccccc2)NC(=O)[C@H](CCCN)NC(=O)[C@H](CCCN)NC(=O)[C@H](CCCN)NC(=O)[C@@H]2CCCN2C(=O)[C@@H](Cc2ccccc2)NC(=O)[C@H](CCCN)NC1=O [listing 1 of 2 here],HC50,[1],> 200 µg/mL
NCCC[C@@H]1NC(=O)[C@H](CCCN)NC(=O)[C@@H]2CCCN2C(=O)[C@@H](Cc2ccccc2)NC(=O)[C@H](CCCN)NC(=O)[C@H](CCCN)NC(=O)[C@H](CCCN)NC(=O)[C@@H]2CCCN2C(=O)[C@@H](Cc2ccccc2)NC(=O)[C@H](CCCN)NC1=O [listing 2 of 2 here],MIC,Staphylococcus aureus [2],50 µg/mL
same,MIC,Escherichia coli [3],> 100 µg/mL
same,MIC,Bacillus subtilis [4],12.5 µg/mL
same,MIC,Pseudomonas aeruginosa [5],> 100 µg/mL
same,MIC,Priestia megaterium,12.5 µg/mL
CC(C)C[C@@H]1NC(=O)[C@@H](CCCN)NC(=O)[C@H](C(C)C)NC(=O)c2cccc(c2)/N=N/c2ccc(cc2)CNC(=O)[C@H](CCCN)NC(=O)[C@H](C(C)C)NC(=O)[C@@H]2CCCN2C(=O)[C@@H](Cc2ccccc2)NC1=O,MIC,Staphylococcus aureus [6],256 µg/mL
CC(C)C[C@@H]1NC(=O)[C@H](CCCN)NC(=O)[C@H](C(C)C)NC(=O)[C@@H]2CCCN2C(=O)[C@@H](Cc2ccccc2)NC(=O)[C@H](CC(C)C)NC(=O)[C@H](CCCN)NC(=O)[C@H](C(C)C)NC(=O)[C@H]2CC[C@H](OCc3ccccc3)[C@@H](CNC1=O)O2,MIC,Enterococcus faecalis [7],16 µg/mL
same,MIC,[8],8 µg/mL
same,MIC,Pseudomonas aeruginosa [9],> 64 µg/mL
same,MIC,Bacillus cereus,8 µg/mL
same,MIC,Staphylococcus aureus [10],16 µg/mL
same,MIC,Escherichia coli [11],32 µg/mL
CC(C)[C@@H]1NC(=O)[C@H](CCCN)NC(=O)[C@@H]2CCCN2C(=O)[C@@H](Cc2ccccc2)NC(=O)[C@H](CCCN)NC(=O)[C@@H](C(C)C)NC(=O)[C@H](CCCN)NC(=O)[C@@H]2CCCN2C(=O)[C@@H](Cc2ccccc2)NC(=O)[C@H](CCCN)NC1=O,MIC,Enterococcus faecalis [7],> 64 µg/mL
same,MIC,Pseudomonas aeruginosa [9],> 64 µg/mL
same,MIC,Staphylococcus aureus [12],> 64 µg/mL
same,MIC,Staphylococcus aureus [10],> 64 µg/mL
same,MIC,Escherichia coli [11],> 64 µg/mL
CC(C)C[C@@H]1NC(=O)[C@H](CCCN)NC(=O)[C@H](C(C)C)NC(=O)[C@H](C)N(C)C(=O)[C@@H](Cc2ccccc2)NC(=O)[C@H](C)N(C)C(=O)[C@@H](CCCN)NC(=O)[C@H](C(C)C)NC(=O)[C@@H]2CCCN2C(=O)[C@@H](Cc2ccccc2)NC1=O,HC50 at 1 h,[13],69.2 µg/mL
same,MIC,[14],1.8 µg/mL
same,MIC,Staphylococcus aureus [15],3.5 µg/mL
same,MIC,Staphylococcus aureus [16],7 µg/mL
same,MIC,Klebsiella pneumoniae,7 µg/mL
same,MIC,Escherichia coli [17],28 µg/mL
same,MIC,Salmonella,28 µg/mL
NCCC[C@@H]1NC(=O)[C@H](C23CC4CC(CC(C4)C2)C3)NC(=O)[C@H](CCCN)NC(=O)[C@@H]2CCCN2C(=O)[C@@H](Cc2ccccc2)NC(=O)[C@H](CCCN)NC(=O)[C@H](C23CC4CC(CC(C4)C2)C3)NC(=O)[C@H](CCCN)NC(=O)[C@@H]2CCCN2C(=O)[C@@H](Cc2ccccc2)NC1=O [listing 1 of 2 here],HC50 at 4 h,[18],107 µg/mL
NCCC[C@@H]1NC(=O)[C@H](C23CC4CC(CC(C4)C2)C3)NC(=O)[C@H](CCCN)NC(=O)[C@@H]2CCCN2C(=O)[C@@H](Cc2ccccc2)NC(=O)[C@H](CCCN)NC(=O)[C@H](C23CC4CC(CC(C4)C2)C3)NC(=O)[C@H](CCCN)NC(=O)[C@@H]2CCCN2C(=O)[C@@H](Cc2ccccc2)NC1=O [listing 2 of 2 here],MIC,Enterococcus faecalis [7],8 µg/mL
same,MIC,Pseudomonas aeruginosa [9],16 µg/mL
same,MIC,Staphylococcus aureus [12],8 µg/mL
same,MIC,Staphylococcus aureus [10],8 µg/mL
same,MIC,Escherichia coli [11],8 µg/mL
CC(C)C[C@@H]1NC(=O)[C@@H](CCCN)NC(=O)[C@H](C(C)C)NC(=O)c2cccc(c2)/N=N\c2ccc(cc2)CNC(=O)[C@H](CCCN)NC(=O)[C@H](C(C)C)NC(=O)[C@@H]2CCCN2C(=O)[C@@H](Cc2ccccc2)NC1=O,MIC,Staphylococcus aureus [6],64 µg/mL
CC(C)C[C@@H]1NC(=O)[C@H](CCCN)NC(=O)[C@H](C(C)C)NC(=O)[C@@H]2CCCN2C(=O)[C@@H](Cc2ccccc2)NC(=O)[C@H](CC(C)C)NC(=O)[C@H](CCCN)NC(=O)[C@H](C(C)C)NC(=O)[C@H](CCCN)NC(=O)[C@H](CC(C)C)NC(=O)[C@H]2CC[C@H](OCc3ccccc3)[C@@H](CNC(=O)[C@H](C(C)C)NC(=O)[C@H](CCCN)NC1=O)O2,selectivity ratio,[19],15.6
same,selectivity ratio,[20],3.9
same,MIC,Staphylococcus aureus [21],4 µg/mL
same,Activity,Erythrocyte,62.5 µg/mL
same,MIC,Enterococcus faecalis [22],8 µg/mL
same,MIC,Pseudomonas aeruginosa [23],8 µg/mL
same,MIC,Escherichia coli [24],16 µg/mL
same,selectivity ratio,[25],7.8
same,selectivity ratio,[26],7.8
NCCC[C@@H]1NC(=O)[C@H](C23CC4CC(CC(C4)C2)C3)NC(=O)[C@@H]2CCCN2C(=O)[C@@H](Cc2ccccc2)NC(=O)[C@H](C23CC4CC(CC(C4)C2)C3)NC(=O)[C@H](CCCN)NC(=O)[C@H](C23CC4CC(CC(C4)C2)C3)NC(=O)[C@@H]2CCCN2C(=O)[C@@H](Cc2ccccc2)NC(=O)[C@H](C23CC4CC(CC(C4)C2)C3)NC1=O,HC50 at 4 h,[18],7.55 µg/mL
CC(C)C[C@@H]1NC(=O)[C@H](CCCN)NC(=O)[C@H](C(C)C)NC(=O)[C@@H]2CCCN2C(=O)[C@@H](Cc2ccccc2)NC(=O)[C@H](CC(C)C)NC(=O)[C@H](CCCN)NC(=O)[C@H](C(C)C)NC(=O)C2=CC3=C4CCCC4=C4C=C(SC4(C)C3(C)S2)C(=O)NNC1=O (stereo partly specified) [listing 1 of 2 here],HC50,[27],58 µg/mL
CC(C)C[C@@H]1NC(=O)[C@H](CCCN)NC(=O)[C@H](C(C)C)NC(=O)[C@@H]2CCCN2C(=O)[C@@H](Cc2ccccc2)NC(=O)[C@H](CC(C)C)NC(=O)[C@H](CCCN)NC(=O)[C@H](C(C)C)NC(=O)C2=CC3=C4CCCC4=C4C=C(SC4(C)C3(C)S2)C(=O)NNC1=O (stereo partly specified) [listing 2 of 2 here],MIC,Staphylococcus xylosus,32 µg/mL
same,MIC,[28],32 µg/mL
same,MIC,Staphylococcus aureus [29],16 µg/mL
Cc1nc2c(s1)C(=O)N[C@@H](C(C)C)C(=O)N[C@@H](CCCN)C(=O)N[C@@H](CC(C)C)C(=O)N[C@H](Cc1ccccc1)c1nc(C)sc1C(=O)N[C@@H](C(C)C)C(=O)N[C@@H](CCCN)C(=O)N[C@@H](CC(C)C)C(=O)N[C@@H]2Cc1ccccc1 (cyclo(L[X1]V[Orn]L[X1]V[Orn])),MIC,Staphylococcus aureus [30],4.68 µg/mL
same,MIC,Escherichia coli [31],25 µg/mL
same,MIC,Pseudomonas aeruginosa [32],> 50 µg/mL
same,"hemolysis at 0.5 h, 100 ug/ml",[33],14%
same,MIC,Bacillus subtilis [34],3.12 µg/mL
